Test results as given in patent publication EP0511759A1, “Biotoxicity test for chemicals” (THE STANDARD OIL COMPANY, priority 1991, dated 1992).

Test system: Anthophysa vegetans protozoa
Experiment: Protozoan feeding-behaviour bioassay: turbidity (absorbance at 540 nm) of live bacterial feed remaining
Type: cell-based
Protocol: The first step of the inventive process comprises adding protozoa and feed into test and control samples which contain inorganic buffers. The chemical substance whose toxic activity is being investigated is then added to the test samples but not to the control samples. The order of adding protozoa, feed and chemical substance is not critical. The amount of protozoa added is usually about at or below 1 x 10⁶ per ml. If dead bacteria are used as feed, they are added at sufficient concentrations to increase the turbidity of the medium to at least 0.3 at 540 nm in a 1.0 cm pathlength tube; this corresponds to concentration of about 2.5 x 10⁹ bacteria per ml. If live bacteria are added as feed, the inoculum level is about 0.01 to about 1% of a fully grown bacterial culture in the range of about 1 x 10⁶ to about 1 x 10⁸ bacteria per ml. […] A sample containing live bacteria is supplemented with a carbon source to support bacterial growth. The carbon sources are generally used at a final concentration of about 0.05%.
This reduction in turbidity generally takes about 1 to about 5 days. If the feed employs live bacteria, there is an initial increase in the turbidity. This increase is then followed by a decrease in turbidity in the control tubes as stated above. If the test chemical is not toxic to the protozoa, the turbidity decreases in the sample tube. If the test chemical is toxic to the protozoa, the turbidity will remain essentially unchanged. The size and volume of the resulting mixture are not critical, provided there is sufficient volume to permit either visual or spectrophotometrical observations of the change in turbidity of the microbial cultures. Typically, about 3 ml to about 5 ml samples were used.
Protozoa, Anthophysa vegetans at about 1 x 10⁵ per ml and a mixed bacteria population of soil bacteria containing but not limited to Alcaligenis and Psuedomonas at about 1 x 10⁶ per ml were inoculated into a growth medium as described above in "Culturing and Test Procedures". The bacteria multiplied in numbers and caused an initial increase in the turbidity (absorbance) of the growth medium, generally from about 0.03 to about 0.4, as measured at 540 nm in a 1.0 cm pathlength tube. After about one day of incubation, the bacterial growth ceased due to the limitation of carbon source. […] The protozoa preyed on the bacteria, leading to a reduction in bacterial cell concentration, indicated by a reduction of turbidity. This growth sequence is illustrated in Line A of Figure 2. If the bacterial cultures were grown without added protozoa, a similar increase in turbidity took place. However, there was no significant reduction in turbidity after the growth phase was completed. This is illustrated in Line B of Figure 2.
Anthophysa vegetans protozoa and live mixed population of soil bacteria containing but not limited to Psuedomonas and Alcaligenis were inoculated into a growth medium as described under "Culturing and Test Procedures". The test chemical, a phenol ethoxylate surfactant, Igepal CO 850 (GAF Chemicals Corp.), was added at different concentrations. A control without added surfactant was maintained. […] However, at about 0 and about 10 ppm surfactant, the absorbance decreased on further incubation. […] The tolerance level of the protozoa, (i.e., the concentration level at which feeding inhibition is first observed) is about 100 ppm Igepal CO 850. […] The protozoa preyed on the bacteria, resulting in reduced absorbance at 540 nm after two days incubation. […]

## O=[N+]([O-])c1ccc(O)cc1 [4-nitrophenol]
Protozoa Inocula Level 0.0001X
  LC₅₀: 0.46 ppm
Protozoa Inocula Level 0.001X
  LC₅₀: 5.6 ppm
Protozoa Inocula Level 0.01X
  LC₅₀: 12.5 ppm
Protozoa Inocula Level 0.1X
  LC₅₀: 19.5 ppm
Protozoa Inocula Level 1.0X
  LC₅₀: 36 ppm
